Measured values as given in US20230064879A1, “NANODRUG PARTICLES, THE USE THEREOF, AND PREPARATION METHOD THEREOF” (NATIONAL YANG MING CHIAO TUNG UNIVERSITY, priority 2021, published 2023).
Converted amounts (≈) assume the structure as drawn.

Assays:
[1] = In vitro release of camptothecin (dialysis bag, Korsmeyer-Peppas model); type: physicochemical; details: PBS pH 7.4, 37° C., 168 hours, MWCO 2,000 Da
Protocol: The in vitro release of camptothecin under different conditions were compared; the conditions were: […] The test duration time was 168 hours, the test temperature was 37° C., and the dialysis bag with molecular weight cut-off (MWCO) of 2,000 Da was used.

A549 cells = assay: Cytotoxicity test on A549 cells; type: cell-based; details: Homo sapiens, 24 hours after drug administration
Protocol: The amount of the cells in each test well was 100 cells. 24 hours after the drug administration, the cell counts were measured.

HT-29 cells = assay: Cytotoxicity test on HT-29 cells; type: cell-based; details: Homo sapiens, 24 hours after drug applied

CC[C@@]1(O)C(=O)OCc2c1cc1n(c2=O)Cc2cc3ccccc3nc2-1 [Camptothecin]
K (Korsmeyer-Peppas model) [1]: 44.25 | n (Korsmeyer-Peppas model) [1]: 0.09985 | IC50 (A549 cells): 40.1 µg/mL (≈ 115 µM) | IC50 (HT-29 cells): 52.3 µg/mL (≈ 150 µM)
